Assay results: patent publication US20230212164A1, “ANNULATED 2-AMINO-3-CYANO THIOPHENES AND DERIVATIVES FOR THE TREATMENT OF CANCER” (BOEHRINGER INGELHEIM INTERNATIONAL GMBH, priority 2020, published 2023)

Columns and labels:
MiaPaCa-2 cells = experiment: MiaPaCa-2 CTG proliferation assay (pancreatic cancer); format: cell-based; conditions: Homo sapiens, MIA PaCa-2, 120 h, 5 days, read-out: IC50 MiaPACA2
Procedure: (§1) The proliferation assays started (day1) with seeding cells in flat bottom 384 well microtiter plates in 90 μL DMEM medium supplemented with 10% FBS at a density of 500 cells/well. Any other luminescence compatible plate format is possible. On day 2, 10 μL dilutions of the test compounds covering a concentration range between app. 0,1 and 10.000 nM were added to the cells. Cells were incubated for 5 days in a humidified, incubator with 5% CO2 at 37° C. On day 7 100 μl of Cell Titer Glow reagent (Cell titer Glo Luminescent Cat. No. G7571, Promega) were added to each well and incubated for additional 10 min at room temperature (with agitation). Luminescence was measured on a Wallac Victor using standard luminescence read out. IC50 values were calculated using standard Levenburg Marquard algorithms (GraphPad Prism).

[1] = test system: pERK (Thr202/Tyr204) in NCI-H358_Cas9_SOS2 (SOS2 knocked); experiment: ERK phosphorylation assay 2 (AlphaLISA SureFire Ultra p-ERK1/2); conditions: read-out: IC50 H358 pERK, ERK phosphorylation assay 2 (values marked with *)
Procedure: ERK Phosphorylation Assay
Low IC50 values in this assay setting are indicative of high potency of the compounds according to the invention.
GFP positive cells were collected and further expanded. These GFP-positive cell pools were single-cell diluted and SOS2 knock-out clones were identified via Western-blot and genomic DNA sequencing analysis.
Materials Used for the Assay:
AlphaLISA SureFire Ultra p-ERK1/2 (Thr202/Tyr204) Assay Kit (ALSU-PERK-A500)
Cells are seeded at 40,000 cells per well in /60 μL of RPMI with 10% FBS, non-essential amino acids, pyruvate and glutamax in Greiner TC 384 plates. The cells are incubated for 1 h at room temperature and then incubated overnight in an incubator at 37° C. and 5% CO2 in a humidified atmosphere. 60 nL compound solution (10 mM DMSO stock solution) is then added using a Labcyte Echo 550 device. After a 1 h incubation in the aforementioned incubator the medium is removed after centrifugation and the cells lysed by addition of 20 μL of 1.6-fold lysis buffer from the AlphaLISA SureFire Ultra pERK1/2 (Thr202/Tyr204) Assay Kit with added protease inhibitors, 100 nM trametinib+100 nM staurosporine. After 20 minutes of incubation at room temperature with shaking, 6 μL of each lysate sample is transferred to a 384-well Proxiplate and analyzed for pERK (Thr202/Tyr204) with the AlphaLISA SureFire Ultra pERK1/2 (Thr202/Tyr204) Assay Kit. 3 μL Acceptor Mix and 3 μL Donor Mix are added under subdued light and incubated for 2 h at room temperature in the dark, before the signal is measured on a PerkinElmer Envision HTS Multilabel Reader. The raw data were imported into and analyzed with the Boehringer Ingelheim proprietary software MegaLab (curve fitting based on the program PRISM, GraphPad Inc.).

NCI-H358 cells = experiment: NCI-H358 CTG proliferation assay (120 h) (NSCLC); format: cell-based; conditions: Homo sapiens
Procedure: NCI-H358 cells (ATCC No. CRL-5807) were dispensed into white bottom opaque 96 well plates (Perkin Elmer cat no. 5680) at a density of 2000 cells per well in 100 μL RPMI-1640 ATCC-Formulation (Gibco #A10491)+10% FCS. Cells were incubated overnight at 37° C. in a humidified tissue culture incubator at 5% CO2. Compounds (10 mM stock in DMSO) were added at logarithmic dose series using the HP Digital Dispenser D300 (Tecan), normalizing for added DMSO. For the T0 time point measurement, untreated cells were analyzed at the time of compound addition. Plates were incubated for 120 hours, and cell viability was measured using CellTiter-Glo luminescent cell viability reagent (Promega product code G7570). Viability (stated as percent of control) is defined as relative luminescence units RLU of each well divided by the RLU of cells in DMSO controls. IC50 values were determined from viability measurements by non-linear regression using a four parameter model.

SW837 cells = experiment: SW 837 CTG proliferation assay (CRC); format: cell-based; conditions: Homo sapiens
Procedure: SW837 cells (ATCC #CCL-235) were grown in cell culture flasks (175 cm^2) using L-15 10% FCS, 1% L-Glu, 1xNEAA and 1× Na-Pyrovat. Cultures were incubated at 37° C. and 0% CO2 in a humidified atmosphere, with medium change or subcultivation 2-3 times a week. Materials used for the assay were CulturPlate-384, White Opaque 384-well Microplate, Sterile and Tissue Culture Treated (Perkin Elmer #6007680), Leibovitz L15 Medium and FBS #SH30071.03 (HyClone).
as §1, with “L-15” for “DMEM medium supplemented with”, “FCS, 1% L-Glu, 1xNEAA and 1×Na-Pyrovat” for “FBS”, “humidified, CO2 controlled (no CO2)” for “humidified,”, “incubator” for “incubator with 5% CO2”, “μL” for “μl”

[2] = target: T1, protein-protein interaction between SOS1 and KRAS G12C (Homo sapiens, UniProt P01116, C118S/C51S/C80L/G12C); experiment: KRAS::SOS1 AlphaScreen binding assay; conditions: Table 36
T1 construct: His6 (N)
T1 sequence (P01116 1-169 isoform P01116-2 G12C/C51S/C80L/C118S): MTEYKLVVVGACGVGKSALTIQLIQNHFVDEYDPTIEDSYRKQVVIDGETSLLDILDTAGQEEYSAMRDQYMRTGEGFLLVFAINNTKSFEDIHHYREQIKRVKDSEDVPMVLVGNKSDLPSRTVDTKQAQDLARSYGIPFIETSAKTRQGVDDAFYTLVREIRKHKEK

[3] = target: KRASG12-dependent Ba/F3 cells (Homo sapiens, UniProt P01116, G12C, cells depend on it); experiment: Ba/F3 cell model proliferation assay (AlamarBlue, 72 h); format: cell-based; conditions: Ba/F3 cells transduced with KRASG12C, read-out: IC50 Ba/F3 KRASG12C
Sequence of KRASG12-dependent Ba/F3 cells (P01116 whole entry G12C): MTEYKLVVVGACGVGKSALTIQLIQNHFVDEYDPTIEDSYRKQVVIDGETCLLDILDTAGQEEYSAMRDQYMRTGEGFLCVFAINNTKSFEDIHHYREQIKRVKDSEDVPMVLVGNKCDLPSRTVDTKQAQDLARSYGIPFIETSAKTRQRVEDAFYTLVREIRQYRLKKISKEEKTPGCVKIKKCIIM

SMILES | IC50 (MiaPaCa-2 cells) | IC50 [1] | IC50 (NCI-H358 cells) | IC50 (SW837 cells) | IC50 [2] | GI50 [3]
C=CC(=O)N1CCN(c2cc(-c3noc([C@@]4(C)CCCc5sc(N)c(C#N)c54)n3)nc(O[C@@H](C)[C@@H]3CCCN3C)n2)[C@@H](C)C1 [Ia-54] | 2.22 nM | 2.2 nM | 1.34 nM | 2.25 nM | 1.6 nM | 4.3 nM
C=CC(=O)N1CCN(c2nc(=O)n(-c3c(C)ccnc3C(C)C)c3nc(-c4c(O)cccc4F)c(F)cc23)[C@@H](C)C1 [sotorasib, reference compound] | – | – | 21 nM | – | – | –
C=CC(=O)N1CCN(c2cc(O[C@@H](C)[C@@H]3CCCN3C)nc(-c3noc([C@@]4(C)CCCc5sc(N)c(C#N)c54)n3)n2)CC12CC2 [Ia-77] | 13.3 nM | 2.6 nM | 4.2 nM | 4.11 nM | 2 nM | 6.9 nM
C=CC(=O)N1CCN(c2cc(-c3noc([C@@]4(C)CCCc5sc(N)c(C#N)c54)n3)nc(O[C@@H](C)[C@@H]3CCCN3C)n2)C[C@@H]1C [Ia-61] | 4.23 nM | 1.3 nM | 0.67 nM | 0.63 nM | 1.6 nM | 2.3 nM
C=CC(=O)N1[C@H](C)CC(Oc2cc(O[C@@H](C)[C@@H]3CCCN3C)nc(-c3noc([C@@]4(C)CCCc5sc(N)c(C#N)c54)n3)c2)C[C@H]1C (stereo partly shown) [Ia-86] | 13.8 nM | 3.9 nM | 4.67 nM | 2.08 nM | 2 nM | 7 nM
C=CC(=O)N1[C@@H](C)CN(c2cc(-c3noc([C@@]4(C)CCCc5sc(N)c(C#N)c54)n3)nc(O[C@@H](C)[C@@H]3CCCN3C)n2)C[C@@H]1C [Ia-62] | 6.77 nM | 1.2 nM | 1.01 nM | 0.42 nM | 1.6 nM | 1.2 nM
C=CC(=O)N1C[C@H](C)N(c2cc(-c3noc([C@@]4(C)CCCc5sc(N)c(C#N)c54)n3)nc(O[C@@H](C)[C@@H]3CCCN3C)n2)C[C@H]1C [Ia-133] | 673 nM | 28.9 nM | 41.4 nM | 71 nM | 12 nM | 77.7 nM
C=CC(=O)N1[C@H](C)CN(c2cc(-c3noc([C@@]4(C)CCCc5sc(N)c(C#N)c54)n3)nc(O[C@@H](C)[C@@H]3CCCN3C)n2)C[C@@H]1C [Ia-64] | 12.1 nM | 3.5 nM | 7.42 nM | 6.34 nM | 2.2 nM | 12 nM
C=CC(=O)N1CCN(c2cc(-c3noc([C@@]4(C)CCCc5sc(N)c(C#N)c54)n3)nc(O[C@@H](C)[C@@H]3CCCN3C)n2)CC1 [Ia-46] | 3 nM | 2.1 nM | 0.95 nM | < 1 nM | 1.7 nM | 4.4 nM
